Measured values: patent US20260139222A1, “SYSTEMS WITH BIO-ENGINEERED ADHESIVE SILOXANE SUBSTRATE OF TUNABLE STIFFNESS AND METHODS OF USE THEREOF” (NUTECH VENTURES, priority 2022, published 2026)
“Also recorded” adds a separate entry of the source.

Assays:
[1] = tested on: Nrf2-related genes in HTR8 cells; details: sulforaphane treatment
Protocol: Sulforaphane (SFN) is a naturally occurring compound present in cruciferous vegetables like broccoli, watercress, Brussels sprouts, cabbage, and cauliflower. […] As a potent Nrf2 activator, SFN affects the expression of approximately 200 genes, including those involved in antioxidant and anti-inflammatory processes. To explore the impact of sulforaphane treatment on the expression levels of Nrf2-related genes, HTR8 cells were cultured on 8 kPa, 25 kPa, and 55 kPa BEASTS surfaces and the gene expression was analyzed by RT-PCR.
Gene Expression analysis of the HTR8 cells: Cells were cultured on BEASTS substrates of different stiffness levels (8 kPa, 25 kPa, and 55 kPa) for four days. After the culture, the total RNA was isolated from the HTR8 cells using Trizol following the manufacturer's instructions. RNA was extracted from the aqueous phase of the cell lysates by adding chloroform, followed by
RNA precipitation using isopropyl alcohol and rinsed with 75% ethanol. The RNA pellet was quantified and quality-checked using a spectrophotometer and then reverse-transcribed using the iScript™ cDNA synthesis kit. Subsequently, the relative expression levels of the target genes were analyzed using quantitative real-time PCR with SYBR Green Master Mix, and GAPDH was used as the housekeeping gene. The […] was employed for data analysis.

caspases 3, 5, and 6 = assay: Non-canonical caspase activity (with Ac-YVAD-CHO) in microglia; format: cell-based, human; details: NAC pre-treatment
Protocol: (§1) Caspase-1 and Non-canonical Inflammasome Activity Assays: Detection of caspase-1 and non-canonical caspases using a luciferase assay was performed using Caspase-Glo™ Inflammasome Assay (Cat #G9951; Promega, Madison WI, USA) according to the manufacturer's instructions. Briefly, microglial cells were grown in 12-well plates on differing stiffness for 11 days and then plated with a selective caspase-1 substate, Z-WEHD, for catalytically active caspase-1 with or without a caspase-1 specific inhibitor, Ac-YVAD-CHO, to confirm specific activity in parallel samples. The Ac-YVAD-CHO has minimal effect on other cross-reacting caspases 3, 5, and 6, thereby, representing non-canonical inflammatory caspase activity. Total luminescence was measured using a Synergy™ 2 multi-mode microplate reader (BioTek, VT, USA). NAC administration in microglial cells: NAC was purchased (Sigma-Aldrich, St. Louis, MO, USA) and was used in treatment after seeding microglial cells for 3 hours with a 2×PBS wash, then replaced with microglia media every 72 hours. Concentrations of 0.25 and 2.5 mM were used 36. Microglia were grown for 11 days and then assessed using qRT-PCR, counting, and luminescent assays.

HMC3 microglia [2] = assay: Microglial proliferation and growth on stiffness after NAC pretreatment; format: cell-based, human
Protocol: Cell Count and Growth Analysis: Microglia were seeded in triplicate (7.5×10^5 cells/well) in a 12-well plate and the growth of cells was counted every other day, after which the stiffer matrices reached 100% confluency. At 48 h intervals, cells were trypsinized and counted using trypan blue exclusion tests. The doubling time of each stiffness was calculated with the following formula: […], where C_start is the number of cells at the beginning (day 0), C_end is the number of cells after a period of time t and T is the doubling time. NAC administration in microglial cells: NAC was purchased (Sigma-Aldrich, St. Louis, MO, USA) and was used in treatment after seeding microglial cells for 3 hours with a 2×PBS wash, then replaced with microglia media every 72 hours. Concentrations of 0.25 and 2.5 mM were used 36. Microglia were grown for 11 days and then assessed using qRT-PCR, counting, and luminescent assays.

HMC3 microglia [3] = assay: Morphology of HMC3 microglia on BEASTS surfaces after NAC pretreatment; format: cell-based, human; details: 0.25 mM NAC pretreatment; after 11 days; all stiffnesses
Protocol: To investigate the protective effect of NAC on stiffness-activated microglia, microglial cells were pretreated with 0.25 and 2.5 mM NAC prior to seeding. After 11 days, the morphology was ramified across all treatments with 0.25 mM NAC (FIG. 17A). ROS production was then measured. […] Next, the genotypes of untreated microglia were compared with NAC-treated microglia and an attenuation was found in each transcript. […] Additionally the MI profile correspondingly attenuated and mechanosensors; however, the M2 marker PPARG increased. To investigate the influence of NAC on caspase-1 stiffness-driven inflammation, the activity of caspase-1 was measured. The activity was reduced in 2 and 8 kPa; however, 25 kPa had increased caspase-1 activity, corroborating the findings with the loss of the CX3CR1 transcript (FIGS. 17E and 17F). […] Together, these findings indicate that pre-treatment of NAC attenuates ROS-driven dysfunction in stiffness-activated microglia. […] BV2 mouse microglia and HMC3 human cells: All cells were grown in aseptic conditions following standard cell culture protocol and stored in an incubator set at 37° C. with 5% CO2. […] Microglia were grown for 11 days and then assessed using qRT-PCR, counting, and luminescent assays.

HMC3 microglia [4] = assay: Total intracellular ROS (H2DCFDA dye) in microglia on stiffness after NAC pretreatment; format: cell-based, human; details: NAC-pre-treated microglia; 11 days on stiffness (2, 8, 25 kPa)
Protocol: ROS Quantification and Imaging: 5-(and6)-Chloromethyl-2′,7′-dichlorodihydro-fluorescein diacetate (CM-H2DCFDA) is a fluorescent indicator activated by the presence of ROS. The intensity of CM-H2DCFDA was measured by calculating the corrected total cell fluorescence (CTCF) from The Open Lab Book Imaging protocols. Microglial cells were plated onto 12-well plates at a density of 75,000 cells/mL. Microglial cells were grown to confluency and then 10 μM DCF-DA (Invitrogen) was added to all wells, and cells were incubated for a further 30 minutes before analysis of ROS-activated DCF-DA fluorescence (FL-1/525 nm).
(§2) NAC administration in microglial cells: NAC was purchased (Sigma-Aldrich, St. Louis, MO, USA) and was used in treatment after seeding microglial cells for 3 hours with a 2×PBS wash, then replaced with microglia media every 72 hours. Concentrations of 0.25 and 2.5 mM were used 36. Microglia were grown for 11 days and then assessed using qRT-PCR, counting, and luminescent assays.

HMC3 microglia [5] = assay: qRT-PCR gene expression in microglia with and without NAC pretreatment; format: cell-based, human
Protocol: NAC administration in microglial cells: NAC was purchased (Sigma-Aldrich, St. Louis, MO, USA) and was used in treatment after seeding microglial cells for 3 hours with a 2×PBS wash, then replaced with microglia media every 72 hours. Concentrations of 0.25 and 2.5 mM were used 36. Microglia were grown for 11 days and then assessed using qRT-PCR, counting, and luminescent assays. Gene Expression by Quantitative RT-PCR (qRT-PCR): Total RNA expression was extracted from microglial cells using TRIzol reagent (Invitrogen, CA, USA) and RNA samples were quantified by Take3 Micro-Volume Plate reader (BioTek, VT, USA) by spectrophotometry at 260/280 nm. Purity was assessed by an absence of 320 nm. RNA samples were reverse transcribed using the M-MuLV RT reagent Kit (New England BioLabs, MA, USA). Relative mRNA levels were determined by real-time PCR using a SYBR® PowerUp master mix and a real-time PCR detection system (Mastercycler Realplex ep gradient, Eppendorf, Hamburg, Germany). Data were expressed in Ct values normalized to 18S and […] between control (2 kPa) and treated groups (8, 15, 25 kPa) was determined using the 2-ΔΔCt method. The telomerase-associated genes were probed using the TaqManTM Array Human Telomere Extension by Telomerase (Applied Biosystems #4414187) with multiple plates. Briefly, samples were loaded with SYBR® PowerUp master mix and a real-time PCR detection system (Mastercycler Realplex ep gradient, Eppendorf, Hamburg, Germany). Data were expressed in Ct values normalized to endogenous controls provided with the array and […] and older change between groups was determined using the 2-ΔΔCt method.

caspase-1 = molecular target: T1, caspase-1 (Homo sapiens, UniProt P29466); assay: Intracellular caspase-1 activity, bioluminescent assay of microglia; format: cell-based; details: NAC pretreatment
T1 construct: endogenous in cells; host or cells: microglial cells (HMC3 inferred)
T1 sequence (P29466 120-297 limits assumed): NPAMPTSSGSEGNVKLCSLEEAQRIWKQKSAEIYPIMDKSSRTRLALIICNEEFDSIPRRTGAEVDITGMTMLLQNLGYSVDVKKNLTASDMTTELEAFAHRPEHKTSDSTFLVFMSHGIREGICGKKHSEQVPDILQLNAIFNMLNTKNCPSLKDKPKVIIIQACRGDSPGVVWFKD
T1 sequence (P29466 317-404 limits assumed): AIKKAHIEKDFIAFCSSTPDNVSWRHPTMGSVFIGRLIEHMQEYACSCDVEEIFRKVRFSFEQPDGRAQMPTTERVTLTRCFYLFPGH
Protocol: as §1, with “USA).” for “USA). NAC administration in microglial cells: NAC was purchased (Sigma-Aldrich, St. Louis, MO, USA) and was used in treatment after seeding microglial cells for 3 hours with a 2×PBS wash, then replaced with microglia media every 72 hours. Concentrations of 0.25 and 2.5 mM were used 36. Microglia were grown for 11 days and then assessed using qRT-PCR, counting, and luminescent assays.”
as §2

[6] = HTR8 cells, all three stiffness levels (8, 25, 55 kPa)

Row | activity of non-canonical caspases (caspases 3, 5, and 6; 2 and 8 kPa) | activity of non-canonical caspases (caspases 3, 5, and 6; elevated activity at 25 kPa) | caspase-1 activity (caspase-1; 2 and 8 kPa) | caspase-1 activity (caspase-1; 25 kPa) | SMILES | expression levels of Nrf2-related genes ([1]; HTR8 cells on 8 kPa, 25 kPa, and 55 kPa BEASTS surfaces, RT-PCR) | GCLM gene expression ([1]; HTR8 cells, 8 kPa and 55 kPa) | HMOX1 gene expression ([1]; HTR8 cells, 55 kPa) | GSR gene expression [1, 6] | NQO1 gene expression [1, 6] | stiffness-induced microglial proliferation / growth (HMC3 microglia [2]) | microglial morphology (HMC3 microglia [3]) | ROS production (HMC3 microglia [4]) | transcripts of NAC-treated versus untreated microglia (HMC3 microglia [5]; 0.25 mM NAC pretreatment, RT-qPCR, 2, 8, 25 kPa) | inflammatory phenotype of microglia (HMC3 microglia [5]; NAC pretreatment, HMC3 cell line on stiffness) | PTGS2 expression (HMC3 microglia [5]; NAC pretreatment, qRT-PCR) | YAP1 expression (HMC3 microglia [5]; NAC pretreatment, qRT-PCR) | M1 inflammatory profile (printed MI profile) (HMC3 microglia [5]; NAC-treated microglia) | PPARG (M2 marker) expression (HMC3 microglia [5]; NAC-treated microglia) | CX3CR1 (steady-state marker) expression (HMC3 microglia [5]; NAC-treated microglia, 25 kPa)
1 | – | – | – | – | C[S+]([O-])CCCCN=C=S (stereo not shown) [sulforaphane, Sulforaphane] | increase | markedly upregulated | markedly upregulated | significantly upregulated | significantly upregulated | – | – | – | – | – | – | – | – | – | –
2 | reduced | attenuated | reduced | increased | CC(=O)N[C@@H](CS)C(=O)O [NAC, N-Acetyl-l-Cysteine] | – | – | – | – | – | mitigates; also recorded: slows | ramified | mitigates; also recorded: significantly reduced; also recorded: ameliorates | attenuation | ameliorates | decrease | decrease | attenuated | increased | decreased substantially
